Assay results as given in patent EP2241312A1, “Use of compositions comprising urea for treating microbial infections” (ISDIN S.A., priority 2009, dated 2010).
“And” between values parts separate entries of the source, which are not always exact repeats. Equal entries are not always repeated. Where two headings read alike, the source gives them in different places.

Key:
Humpsor = experiment: cells; type: cell-based, human; details: for fold induction at 10000 µM: Homo sapiens, Keratinocyte
Protocol: (§1) Primary human epidermal keratinocytes were prepared from neonatal foreskin as described previously (Grether-Beck et al, 1996, 2000, 2003, 2005, 2008) and maintained in culture under serum free conditions using a defined keratinocyte growth medium Keratinocyte SFM (Invitrogen, Heidelberg, Germany) supplemented with bovine pituitary extract (Invitrogen, Heidelberg, Germany) and recombinant epidermal growth factor (Invitrogen, Heidelberg, Germany). Cells were propagated up to passage 2 or 3 at 37°C and 5 % CO2 (Grether-Beck et al, 1996, 2000, 2003, 2005, 2008). For induction of differentiation NHEKs were seeded in 6well plates and grown up to confluence.
(§2) For assessment of gene expression total RNA was extracted from frozen biopsies (Ø 4 mm) and gene expression measured by semiquantitative RT-PCR. For isolation of RNA from frozen skin biopsies, 600 µl lysis buffer from PeqGold Total RNA Kit (PeqLab, Erlangen, Germany) were added and the samples were disrupted in a MixerMill MM300 (Retsch, Haan, Germany) three times for 3 min with 30 Hz. 50 ng total RNA were used for cDNA synthesis. PCR reactions were performed in an Opticon 1 (MJ Research, Waltham, MA, USA) using Sybr QPCR Supermix w. Rox (Invitrogen, Karlsruhe, Germany). PCR conditions were as follows: activation of hot start taq polymerase 94° C 15 minutes; denaturation 95° C, 20 seconds; annealing, 55° C, 20 seconds; extension, 72° C 30 seconds. Each sample was subjected to PCR in double using the appropriate primer pairs for 45-50 cycles. For comparison of relative expression in real time PCR control cells and treated cells the 2 (-della delta C(T)) method was used (Livak KJ, and Schmittgen TD. Analysis of relative gene expression data using real time quantitative PCR and the 2 (-delta delta C(T)) method. Methods 2001: 25: 402 - 408). mRNA expression of the genes of interest was shown as fold induction as compared to untreated skin samples of the same volunteer. Table 1: Primer pairs for real time PCR
(§3) For determination of relative gene expression in real time PCT the 2(-delta delta C(T))-method was used as described in Livak and Schmittgen (2001) "Analysis of relative gene expression data using real time quantitative PCR and the 2 (-delta delta C(T))-method" Methods 25: 401-408. For statistical analysis, the experimental data were analyzed using the Wilcoxon signed-rank test.
(§4) HNKs were stimulated with 10mM urea for the indicated time points (3h, 6h, 12h, 24h) and processed for RNA analysis (1). Data are the result of a set of three samples for the control and two samples in parallel for the urea stimulated ones. Table 2 indicates the relative gene expression levels after stimulation with urea as compared to untreated contol cells. […] Table 3 indicates the data depicted in Figure 2. [formula] Table 2: Expression of antimicrobial peptides in human keratinocytes after stimulation with urea at different time points after induction.

LL-37 [1] = experiment: LL-37 expression in confluent human keratinocytes, time course and urea concentration series (real time PCR); type: cell-based; details: for fold induction at 1000 µM / fold induction at 5000 µM / fold induction at 20000 µM / fold induction at 50000 µM / fold induction at 100000 µM / fold induction at 10000 µM: Homo sapiens, Keratinocyte; for fold induction at 20000 µM: 20mM urea
Protocol: as §1, §2
as §3, with “test. […]” for “test.”

HBD-2 = experiment: cells; type: cell-based, human; details: for fold induction at 1000 µM / fold induction at 10000 µM / fold induction at 20000 µM / fold induction at 50000 µM / fold induction at 100000 µM / fold induction at 5000 µM: Homo sapiens, Keratinocyte; for Expression of HBD-2: keratinocytes
Protocol: as §1, §2, §3
as §4, with “Data” for “HNKs were stimulated with 10mM urea for the indicated time points (3h, 6h, 12h, 24h) and processed for RNA analysis (1). Data”

LL-37 [2] = experiment: LL-37 gene expression in subconfluent primary human keratinocytes after urea stimulation (real time PCR); type: cell-based; details: 10mM urea, compared to untreated control cells; for relative gene expression level LL-37: 10000 µM; for fold induction at 10000 µM: Homo sapiens, Keratinocyte, read-out: relative gene expression level LL-37
Protocol: as §1, §2, §3, §4

Compound: NC(N)=O [urea]
- fold induction at 10000 µM (Humpsor; 3 h, read-out: relative gene expression level Humpsor, 10mM urea, 3h, compared to untreated control cells): 1.9
- fold induction at 10000 µM (Humpsor; 6 h, read-out: relative gene expression level Humpsor, 10mM urea, 6h, compared to untreated control cells): 2.6
- fold induction at 10000 µM (Humpsor; 24 h, read-out: relative gene expression level Humpsor, 10mM urea, 24h, compared to untreated control cells): 1.5
- relative gene expression level Humpsor (Humpsor; primary keratinocytes, 6 h, 10000 µM): 3.1000
- Expression of LL-37 (LL-37 [1]; 24h, 1mM urea, 1440 min, 1000 µM): 1.9000
- Expression of LL-37 (LL-37 [1]; 24h, 5mM urea, 1440 min, 5000 µM): 1.7000
- Expression of LL-37 (LL-37 [1]; 24h, 10mM urea, 1440 min, 10000 µM): 1.7000
- Expression of LL-37 (LL-37 [1]; 48h, 1mM urea, 2880 min, 1000 µM): 3.0000
- Expression of LL-37 (LL-37 [1]; 48h, 5mM urea, 2880 min, 5000 µM): 2.2000 and 1.9000
- Expression of LL-37 (LL-37 [1]; 72h, 1mM urea, 4320 min, 1000 µM): 10.3000 and 11.4000
- Expression of LL-37 (LL-37 [1]; 72h, 5mM urea, 4320 min, 5000 µM): 7.1000
- Expression of LL-37 (LL-37 [1]; 72h, 10mM urea, 4320 min, 10000 µM): 1.7000 and 1.7300
- Expression of LL-37 (LL-37 [1]; 72h, 50mM urea, 4320 min, 50000 µM): 0.9000
- Expression of LL-37 (LL-37 [1]; 96h, 1mM urea, 5760 min, 1000 µM): 4.7000 and 5.5000
- Expression of LL-37 (LL-37 [1]; 96h, 5mM urea, 5760 min, 5000 µM): 4.2000
- Expression of LL-37 (LL-37 [1]; 96h, 10mM urea, 5760 min, 10000 µM): 3.4000
- Expression of LL-37 (LL-37 [1]; 96h, 100mM urea, 5760 min, 100000 µM): 1.0000
- fold induction at 1000 µM (LL-37 [1]; 24 h, 1mM urea): 1.8
- fold induction at 5000 µM (LL-37 [1]; 24 h, 5mM urea): 1.4
- fold induction at 20000 µM (LL-37 [1]; 24 h): 1.2
- fold induction at 50000 µM (LL-37 [1]; 24 h, 50mM urea): 1.3
- fold induction at 100000 µM (LL-37 [1]; 24 h, 100mM urea): 1.2
- fold induction at 1000 µM (LL-37 [1]; 48 h, 1mM urea): 3.2
- fold induction at 5000 µM (LL-37 [1]; 48 h, 5mM urea): 2.1
- fold induction at 10000 µM (LL-37 [1]; 48 h, 10mM urea): 1.5
- fold induction at 20000 µM (LL-37 [1]; 48 h): 1.2
- fold induction at 50000 µM (LL-37 [1]; 48 h, 50mM urea): 1.2
- fold induction at 100000 µM (LL-37 [1]; 48 h, 100mM urea): 0.8
- fold induction at 1000 µM (LL-37 [1]; 72 h, 1mM urea): 11.2
- fold induction at 5000 µM (LL-37 [1]; 72 h, 5mM urea): 7.2
- fold induction at 10000 µM (LL-37 [1]; 72 h, 10mM urea): 1.8
- fold induction at 20000 µM (LL-37 [1]; 72 h): 1.6
- fold induction at 50000 µM (LL-37 [1]; 72 h, 50mM urea): 0.8
- fold induction at 100000 µM (LL-37 [1]; 72 h, 100mM urea): 0.8
- fold induction at 1000 µM (LL-37 [1]; 96 h, 1mM urea): 5
- fold induction at 5000 µM (LL-37 [1]; 96 h, 5mM urea): 3.9
- fold induction at 10000 µM (LL-37 [1]; 96 h, 10mM urea): 3.2
- fold induction at 20000 µM (LL-37 [1]; 96 h): 1.6
- fold induction at 50000 µM (LL-37 [1]; 96 h, 50mM urea): 1.3
- fold induction at 100000 µM (LL-37 [1]; 96 h, 100mM urea): 1.1
- fold induction at 1000 µM (HBD-2; 24 h, read-out: Expression of HBD-2, 24h, 1mM urea): 1.2
- fold induction at 10000 µM (HBD-2; 24 h, read-out: Expression of HBD-2, 24h, 10mM urea): 1.5
- fold induction at 20000 µM (HBD-2; 24 h, read-out: Expression of HBD-2, 24h, 20mM urea): 3.9
- fold induction at 50000 µM (HBD-2; 24 h, read-out: Expression of HBD-2, 24h, 50mM urea): 2.3
- fold induction at 100000 µM (HBD-2; 24 h, read-out: Expression of HBD-2, 24h, 100mM urea): 1.3
- fold induction at 1000 µM (HBD-2; 48 h, read-out: Expression of HBD-2, 48h, 1mM urea): 0.9
- fold induction at 5000 µM (HBD-2; 48 h, read-out: Expression of HBD-2, 48h, 5mM urea): 1.7
- fold induction at 10000 µM (HBD-2; 48 h, read-out: Expression of HBD-2, 48h, 10mM urea): 3.3
- fold induction at 20000 µM (HBD-2; 48 h, read-out: Expression of HBD-2, 48h, 20mM urea): 19.1
- fold induction at 50000 µM (HBD-2; 48 h, read-out: Expression of HBD-2, 48h, 50mM urea): 6.3
- fold induction at 100000 µM (HBD-2; 48 h, read-out: Expression of HBD-2, 48h, 100mM urea): 2.3
- fold induction at 1000 µM (HBD-2; 72 h, read-out: Expression of HBD-2, 72h, 1mM urea): 2.2
- fold induction at 5000 µM (HBD-2; 72 h, read-out: Expression of HBD-2, 72h, 5mM urea): 5.4
- fold induction at 10000 µM (HBD-2; 72 h, read-out: Expression of HBD-2, 72h, 10mM urea): 6.5
- fold induction at 20000 µM (HBD-2; 72 h, read-out: Expression of HBD-2, 72h, 20mM urea): 13.3
- fold induction at 50000 µM (HBD-2; 72 h, read-out: Expression of HBD-2, 72h, 50mM urea): 10.1
- fold induction at 100000 µM (HBD-2; 72 h, read-out: Expression of HBD-2, 72h, 100mM urea): 2.9
- fold induction at 1000 µM (HBD-2; 96 h, read-out: Expression of HBD-2, 96h, 1mM urea): 1.9
- fold induction at 5000 µM (HBD-2; 96 h, read-out: Expression of HBD-2, 96h, 5mM urea): 4.1
- fold induction at 10000 µM (HBD-2; 96 h, read-out: Expression of HBD-2, 96h, 10mM urea): 6.1
- fold induction at 20000 µM (HBD-2; 96 h, read-out: Expression of HBD-2, 96h, 20mM urea): 15
- fold induction at 50000 µM (HBD-2; 96 h, read-out: Expression of HBD-2, 96h, 50mM urea): 12.6
- fold induction at 100000 µM (HBD-2; 96 h, read-out: Expression of HBD-2, 96h, 100mM urea): 10.2
- Expression of HBD-2 (HBD-2; 24 h, 1000 µM): 1.1000
- Expression of HBD-2 (HBD-2; 24 h, 10000 µM): 1.6000
- Expression of HBD-2 (HBD-2; 48 h, 1000 µM): 0.7000
- Expression of HBD-2 (HBD-2; 48 h, 5000 µM): 1.6000
- Expression of HBD-2 (HBD-2; 48 h, 50000 µM): 6.2000
- Expression of HBD-2 (HBD-2; 48 h, 100000 µM): 2.6000
- Expression of HBD-2 (HBD-2; 72 h, 1000 µM): 2.6000
- Expression of HBD-2 (HBD-2; 72 h, 10000 µM): 7.0000
- Expression of HBD-2 (HBD-2; 72 h, 20000 µM): 13.2000
- Expression of HBD-2 (HBD-2; 96 h, 1000 µM): 1.8000
- Expression of HBD-2 (HBD-2; 96 h, 5000 µM): 4.2000
- Expression of HBD-2 (HBD-2; 96 h, 100000 µM): 10.9000
- relative gene expression level LL-37 (LL-37 [2]; 3h, 180 min): 1.9000
- relative gene expression level LL-37 (LL-37 [2]; 24h, 1440 min): 1.9000
- fold induction at 10000 µM (LL-37 [2]; 6 h, 6h): 2.8
- fold induction at 10000 µM (LL-37 [2]; 12 h, 12h): 2.3
- fold induction at 10000 µM (LL-37 [2]; 24 h, 24h): 2.1
